# Experimental data reported in the supplement of paper PMC10307832.
# Compound: CC1=C(C(=NN1)C)CC2=C(C3=C(S2)N(C(=O)N(C3=O)C)CC(C)C)C(=O)N4C[C@@H](CO4)O + CC(=O)Nc1cccc(-n2c(=O)n(C3CC3)c(=O)c3c(Nc4ccc(I)cc4F)n(C)c(=O)c(C)c32)c1 [Trametinib] (partner 0.02 µM)
# Assay: relative viability (nuclei count vs DMSO), 5 days (fraction); higher = more cells survive
# Conditions: first compound 0.25 µM
# In short: (§1)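 Relative viability is defined as nuclei in treated wells over nuclei in vehicle wells. Duplicate plates were run and medians reported. Lung cancer cell lines in 1536-well plates were dosed by pin tool one day after seeding, with one drug or with a fixed anchor-drug dose plus five library-drug doses (not always all listed) in √10 steps, and nuclei were counted after 5 days.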
row,Cell Line,relative viability
1,CAL-12T,0.405
2,NCI-H2228,0.577
3,NCI-H1793,0.36
4,NCI-H1944,0.385
5,NCI-H358,0.129

# Compound: Cc1ccccc1C(C(=O)NC1CCCCC1)N(C(=O)Cn1ccnc1C)c1cccc(F)c1 [IDH-C35] + C[C@@H](Oc1cc(-c2cnn(C3CCNCC3)c2)cnc1N)c1c(Cl)ccc(F)c1Cl [Crizotinib] (partner 1 µM)
# Assay: as above
# Conditions: first compound 0.08 µM
# In short: as §1
row,Cell Line,relative viability
1,NCI-H727,0.853
2,NCI-H1650,0.796
3,EBC-1,0.181
4,NCI-H1703,0.582
5,NCI-H1993,0.888
6,SW 1573,0.759
7,NCI-H838,0.834
8,LCLC-103H,1.01
9,NCI-H520,0.785
10,NCI-H2126,0.996
11,EMC-BAC-2,0.809
12,NCI-H2085,0.808
13,Calu-6,0.765
14,HCC-366,0.546
15,NCI-H1666,0.995
16,NCI-H596,0.831
17,LK-2,0.223
18,NCI-H2087,0.91
19,SK-MES-1,1.05
20,IA-LM,0.94
21,NCI-H2170,1.25
22,A549,0.819
23,NCI-H1299,0.97
24,CAL-12T,0.556
25,NCI-H2228,0.418
26,NCI-H1563,0.874
27,NCI-H1944,1.12
28,ABC-1,0.876
29,NCI-H358,0.67

# Same assay, conditions: first compound 0.253 µM
row,Cell Line,relative viability
1,NCI-H727,0.734
2,NCI-H1650,0.978
3,EBC-1,0.187
4,NCI-H1703,0.875
5,NCI-H1993,0.874
6,SW 1573,0.889
7,NCI-H838,0.787
8,LCLC-103H,1.07
9,NCI-H520,0.812
10,NCI-H2126,1.02
11,EMC-BAC-2,0.731
12,NCI-H2085,0.749
13,Calu-6,0.745
14,HCC-366,0.51
15,NCI-H1666,0.942
16,NCI-H596,0.966
17,LK-2,0.23
18,NCI-H2087,0.898
19,SK-MES-1,0.953
20,IA-LM,0.874
21,NCI-H2170,1.2
22,A549,0.794
23,NCI-H1299,0.953
24,CAL-12T,0.792
25,NCI-H2228,0.457
26,NCI-H1563,0.907
27,NCI-H1944,1.18
28,ABC-1,1.21
29,NCI-H358,0.516

# Same assay, conditions: first compound 0.8 µM
row,Cell Line,relative viability
1,NCI-H727,0.826
2,NCI-H1650,0.965
3,EBC-1,0.168
4,NCI-H1703,1.09
5,NCI-H1993,0.833
6,SW 1573,0.798
7,NCI-H838,0.812
8,LCLC-103H,1
9,NCI-H520,0.757
10,NCI-H2126,1
11,EMC-BAC-2,0.744
12,NCI-H2085,0.877
13,Calu-6,0.804
14,HCC-366,0.564
15,NCI-H1666,0.968
16,NCI-H596,1.08
17,LK-2,0.215
18,NCI-H2087,0.843
19,SK-MES-1,0.912
20,IA-LM,0.741
21,NCI-H2170,1.14
22,A549,0.814
23,NCI-H1299,0.981
24,CAL-12T,0.682
25,NCI-H2228,0.51
26,NCI-H1563,0.861
27,NCI-H1944,0.979
28,ABC-1,1.3
29,NCI-H358,0.559

# Same assay, conditions: first compound 2.53 µM
row,Cell Line,relative viability
1,NCI-H727,0.916
2,NCI-H1650,0.914
3,EBC-1,0.194
4,NCI-H1703,0.636
5,NCI-H1993,0.743
6,SW 1573,1.01
7,NCI-H838,0.77
8,LCLC-103H,1.07
9,NCI-H520,0.775
10,NCI-H2126,0.981
11,EMC-BAC-2,0.713
12,NCI-H2085,0.954
13,Calu-6,0.833
14,HCC-366,0.546
15,NCI-H1666,1
16,NCI-H596,1.02
17,LK-2,0.209
18,NCI-H2087,0.902
19,SK-MES-1,0.937
20,IA-LM,0.755
21,NCI-H2170,1.17
22,A549,0.669
23,NCI-H1299,0.923
24,CAL-12T,0.603
25,NCI-H2228,0.496
26,NCI-H1563,0.92
27,NCI-H1944,1.04
28,ABC-1,1.15
29,NCI-H358,0.505

# Same assay, conditions: first compound 8 µM
row,Cell Line,relative viability
1,NCI-H727,0.954
2,NCI-H1650,0.923
3,EBC-1,0.161
4,NCI-H1703,0.823
5,NCI-H1993,0.903
6,SW 1573,0.713
7,NCI-H838,0.799
8,LCLC-103H,0.987
9,NCI-H520,0.796
10,NCI-H2126,0.992
11,EMC-BAC-2,0.743
12,NCI-H2085,0.781
13,Calu-6,0.742
14,HCC-366,0.42
15,NCI-H1666,0.967
16,NCI-H596,0.973
17,LK-2,0.233
18,NCI-H2087,0.841
19,SK-MES-1,0.986
20,IA-LM,0.704
21,NCI-H2170,1.22
22,A549,0.744
23,NCI-H1299,0.93
24,CAL-12T,0.603
25,NCI-H2228,0.506
26,NCI-H1563,0.854
27,NCI-H1944,1.22
28,ABC-1,1.09
29,NCI-H358,0.589

# Compound: CC1=C(C(=NN1)C)CC2=C(C3=C(S2)N(C(=O)N(C3=O)C)CC(C)C)C(=O)N4C[C@@H](CO4)O + CC(C)C[C@H](NC(=O)[C@H](Cc1ccccc1)NC(=O)c1cnccn1)B(O)O [Bortezomib] (partner 0.002 µM)
# Assay: as above
# Conditions: first compound 0.0025 µM
# In short: as §1
row,Cell Line,relative viability
1,NCI-H727,0.919
2,NCI-H1650,0.218
3,EBC-1,0.602
4,NCI-H1703,0.265
5,NCI-H1993,1.19
6,SW 1573,1.09
7,NCI-H838,0.88
8,LCLC-103H,1.11
9,NCI-H520,0.646
10,NCI-H2126,1.11
11,EMC-BAC-2,1.15
12,NCI-H2085,1.04
13,Calu-6,1.05
14,HCC-366,1.04
15,NCI-H1666,0.933
16,NCI-H596,0.997
17,NCI-H2087,0.996
18,IA-LM,0.923
19,NCI-H1299,1.03
20,CAL-12T,1.07
21,NCI-H2228,0.996
22,NCI-H1563,0.943
23,ABC-1,0.342

# Same assay, conditions: first compound 0.007906 µM
row,Cell Line,relative viability
1,NCI-H727,0.583
2,NCI-H1650,0.203
3,EBC-1,0.553
4,NCI-H1703,0.223
5,NCI-H1993,1.12
6,SW 1573,1.13
7,NCI-H838,1.13
8,LCLC-103H,1.08
9,NCI-H520,0.413
10,NCI-H2126,1.15
11,EMC-BAC-2,1.15
12,NCI-H2085,0.978
13,Calu-6,1.05
14,HCC-366,1.1
15,NCI-H1666,0.874
16,NCI-H596,1.11
17,NCI-H2087,0.716
18,IA-LM,0.652
19,NCI-H1299,0.946
20,CAL-12T,0.978
21,NCI-H2228,1.09
22,NCI-H1563,0.938
23,ABC-1,0.304

# Same assay, conditions: first compound 0.025 µM
row,Cell Line,relative viability
1,NCI-H727,0.694
2,NCI-H1650,0.234
3,EBC-1,0.588
4,NCI-H1703,0.221
5,NCI-H1993,1.09
6,SW 1573,1.1
7,NCI-H838,0.786
8,LCLC-103H,1.15
9,NCI-H520,0.192
10,NCI-H2126,1.07
11,EMC-BAC-2,1.04
12,NCI-H2085,0.947
13,Calu-6,0.904
14,HCC-366,0.958
15,NCI-H1666,0.821
16,NCI-H596,1.05
17,NCI-H2087,0.705
18,IA-LM,0.815
19,NCI-H1299,0.975
20,NCI-H2228,1.11
21,NCI-H1563,0.938
22,ABC-1,0.304

# Same assay, conditions: first compound 0.07906 µM
row,Cell Line,relative viability
1,NCI-H727,0.716
2,NCI-H1650,0.17
3,EBC-1,0.639
4,NCI-H1703,0.3
5,NCI-H1993,1.01
6,SW 1573,1.07
7,NCI-H838,0.738
8,LCLC-103H,1.04
9,NCI-H520,0.23
10,NCI-H2126,1.07
11,EMC-BAC-2,1.06
12,NCI-H2085,0.98
13,Calu-6,1.12
14,HCC-366,1.07
15,NCI-H1666,0.778
16,NCI-H596,1.15
17,NCI-H2087,0.909
18,IA-LM,1
19,NCI-H1299,1.01
20,CAL-12T,0.891
21,NCI-H2228,0.97
22,NCI-H1563,0.811
23,ABC-1,0.394

# Same assay, conditions: first compound 0.25 µM
row,Cell Line,relative viability
1,NCI-H727,0.873
2,NCI-H1650,0.189
3,EBC-1,0.648
4,NCI-H1703,0.256
5,NCI-H1993,1.15
6,SW 1573,0.893
7,NCI-H838,0.929
8,LCLC-103H,1.05
9,NCI-H520,0.28
10,NCI-H2126,1.15
11,EMC-BAC-2,1.1
12,NCI-H2085,0.926
13,Calu-6,1.09
14,HCC-366,1.13
15,NCI-H1666,0.81
16,NCI-H596,0.98
17,NCI-H2087,1.05
18,IA-LM,0.883
19,NCI-H1299,1.01
20,CAL-12T,0.926
21,NCI-H2228,1.47
22,NCI-H1563,0.818
23,ABC-1,0.335
